# What was measured:
# [1] = Evaluation of cardiovascular effects in the conscious telemetered mouse (subcutaneous administration); assay type: in vivo, Crl:CD1(ICR) mice; conditions: 800 μg CNP-38 (eq)/kg sc
# Procedure: Male Crl:CD1(ICR) mice (age range 8-13 weeks and body weight range 27.3-35.6 g at start of dosing) were surgically implanted with a TA11PA-C10 telemetry transmitter (Data Sciences International (DSI)) in the carotid artery. The body of the transmitter was placed subcutaneously in the lateral flank of the mouse. The mice were dosed subcutaneously in a latin square crossover design with at least 72 hours between dosing occasions. […] At least four mice were included at each dose level. Blood pressure (systolic (SAP), diastolic (DAP) and mean (MAP) and heart rate (HR, derived from blood pressure), were recorded using a digital data capture system linked with a DSITM Ponemah data acquisition and analysis system. The capture system allowed recording of the cardiovascular parameters whilst the mice were in individual cages. On the day of each test session the animals were weighed and a predose recording was performed for at least 60 min prior to dosing. Each mouse was returned to the home cage and the cardiovascular parameters were recorded for approximately 48 hours postdose. Blood pressure and HR were reported at the following time points: −30, −20, −10, 5, 15 and 30 min postdose and 1, 2, 6, 12, 18, 24, 30, 36, 42 and 48 hours postdose. Each time point was presented as the average value of five minute's recording prior to the time point. The monitoring period was selected to cover exposure to the test items both prior to and after Tmax.
# [2] = Pharmacokinetic profile of CNP-38 after subcutaneous single-dose administration to cynomolgus monkeys; assay type: in vivo; conditions: single s.c. 40 μg/kg
# Procedure: This study was performed in order to test the pharmacokinetics of CNP-38 after subcutaneous (s.c.) administration in cynomolgus monkeys. Three male monkeys (2-4 years old, 3-5 kg) received a single s.c. injection at a dose of 40 μg/kg of CNP-38. Blood samples were collected at 5, 10, 15, 30, 45 min and 1, 2, 4, 8 hours upon dose.
# Method: Plasma levels of CNP were analysed using a commercially available competitive radioimmuno-assay (RK-012-03, Phoenix Pharmaceuticals, CA). The assay was applied essentially as described by the manufacturer. The assay is based on competitive binding between 125I-labelled CNP (supplied in the kit) and unlabeled CNP (from study sample or calibrants) to an anti-CNP antibody. […] By measuring the amount of 125I-labelled CNP bound as a function of the concentration of peptide, it is possible to construct a calibration curve from which the concentration of peptide in the sample can be determined.
# A few changes to the supplied assay protocol were made. These changes included using in-house CNP calibrant and QC samples to secure consistency between assay runs. […] Due to matrix effects in monkey plasma, the minimal required dilution was set at 1:10, yielding an assay range of 150-1080 μg/mL CNP.
# [3] = in vivo; cited from earlier work
# [4] = doses up to 15 μg/kg, healthy volunteers; cited from earlier work
Molecule,effect on heart rate (HR) ([1]; up to 48 hours postdose),"effect on blood pressure (MAP) ([1]; 5, 15 and 30 min post dose, CNP-38: 3 of 4 animals)",MAP 5 min post dose (mean±SD) ([1]; 5 min post dose) [mmHg],MAP 15 min post dose (mean±SD) ([1]; 15 min post dose) [mmHg],MAP 30 min post dose (mean±SD) ([1]; 30 min post dose) [mmHg],MAP predose (mean±SD) ([1]; predose) [mmHg],tolerability [2],half-life [3] [min],blood pressure effect [4]
CC[C@H](C)[C@@H]1NC(=O)[C@H](CCCNC(=N)N)NC(=O)[C@H](CC(=O)O)NC(=O)[C@H](CC(C)C)NC(=O)[C@H](CCCCN)NC(=O)[C@H](CC(C)C)NC(=O)CNC(=O)[C@H](Cc2ccccc2)NC(=O)[C@@H](NC(=O)CNC(=O)[C@H](CCCCN)NC(=O)[C@H](CO)NC(=O)[C@H](CC(C)C)NC(=O)CNC(=O)[C@H](CCCCN)NC(=O)[C@H](CCCCN)NC(=O)[C@H](CC(N)=O)NC(=O)[C@H](C)NC(=O)CNC(=O)[C@H](CCCCN)NC(=O)[C@H](Cc2ccc(O)cc2)NC(=O)[C@H](CCCCN)NC(=O)[C@H](CCCNC(=N)N)NC(=O)[C@H](C)NC(=O)[C@H](CC(N)=O)NC(=O)[C@@H]2CCCN2C(=O)[C@H](Cc2c[nH]cn2)NC(=O)[C@H](CCC(=O)O)NC(=O)[C@H](CCC(N)=O)NC(=O)[C@@H](N)CC(C)C)CSSC[C@@H](C(=O)O)NC(=O)CNC(=O)[C@H](CC(C)C)NC(=O)CNC(=O)[C@H](CO)NC(=O)[C@H](CCSC)NC(=O)[C@H](CO)NC(=O)CNC1=O [CNP-38],not impacted,significant decrease in MAP,102.0 ± 7.5,89.5 ± 29.4,99.5 ± 25.2,106.8 ± 13.4,well tolerated,,
BMN-111,,,,,,,,20,mild hypotension

# — patent publication US12083182B2, “Controlled-release CNP agonists with increased NEP stability” (ASCENDIS PHARMA GROWTH DISORDERS A/S, priority 2016, dated 2024)
